Measured values reported in ChEMBL document CHEMBL1133800, “Microwave assisted synthesis of N-arylphthalamic acids with hyperlipidemic activity” (2001).

Key:
Assay type in all cases: functional
Mus musculus [1] = species on record: Mus musculus; assay: Animal body weight was evaluated in Swiss white mice before treatment with the compound
Mus musculus [2] = assay: Animal body weight was evaluated in Swiss white mice treated with 20 mg/kg/day of ip administration for 14 days; conditions: route intraperitoneal
Mus musculus [3] = species on record: Mus musculus; assay: Plasma cholesterol level was evaluated in Swiss white mice before treatment with the compound
Mus musculus [4] = assay: Plasma cholesterol level was evaluated in Swiss white mice treated with 20 mg/kg/day of ip administration for 14 days; conditions: route intraperitoneal
Mus musculus [5] = species on record: Mus musculus; assay: Plasma triglyceride level was evaluated in Swiss white mice before treatment with the compound
Mus musculus [6] = assay: Plasma triglyceride level was evaluated in Swiss white mice treated with 20 mg/kg/day of ip administration for 14 days; conditions: route intraperitoneal

Compound | Body weight (Mus musculus [1]) | Body weight (Mus musculus [2]) | Cholesterol (Mus musculus [3]) | Cholesterol (Mus musculus [4]) | Triglycerides (Mus musculus [5]) | Triglycerides (Mus musculus [6])
O=C(O)c1ccccc1C(=O)Nn1cnnc1 | 35 g | 39 g | 2.46 mM | 2.95 mM | 1.12 mM | < 1.49 mM
O=C(O)c1ccccc1C(=O)Nc1ccc(F)cc1 | 20 g | <25 g | 2.66 mM | < 3.17 mM | 1.26 mM | < 1.48 mM
O=C(O)c1ccccc1C(=O)Nc1cccc(Cl)c1 | 24 g | <28 g | 2.17 mM | < 2.48 mM | 1.04 mM | < 1.28 mM
O=C(O)c1ccccc1C(=O)Nc1ccccc1F | 26 g | <30 g | 3.06 mM | < 3.4 mM | 0.94 mM | < 1.23 mM
O=C(O)c1ccccc1C(=O)Nc1ccccc1Cl | 26 g | <29 g | 2.11 mM | < 2.43 mM | 1.06 mM | < 1.32 mM
O=C(O)c1ccccc1C(=O)Nc1ccccc1 | 28 g | 29 g | 2.71 mM | < 3.06 mM | 1.07 mM | < 1.3 mM
O=C(O)c1ccccc1C(=O)Nc1nc[nH]n1 | 35 g | 38 g | 2.45 mM | 2.78 mM | 1.14 mM | < 1.58 mM
O=C(O)c1ccccc1C(=O)Nc1ccc(Cl)cc1 | 25 g | 28 g | 2.3 mM | < 2.51 mM | 0.86 mM | < 1.06 mM
O=C(O)c1ccccc1C(=O)Nc1cccc(F)c1 | 26 g | <29 g | 3.02 mM | < 3.28 mM | 1.01 mM | < 1.35 mM
